{"source": "patent US11065211B2", "about": "“Isoxylitones mediated neurogenesis” (priority 2018, dated 2021)", "experiment_in_all_cases": "Immunocytochemical analysis of primary cultured and cocultured cells", "type_in_all_cases": "cell-based, rat", "key": {"neurogenin": {"system": "neurogenin", "experimental": "(§1) Immuncytochemical analysis was performed for differentiation studies of primary cultures of cortex, hippocampus, and co-cultures (CoCul) in absence of growth factors and serum free medium.\n(§2) The cultured cells of cortex, hippocampus, and co-cultured cells in the presence of serum free medium were plated in chamber slides at the density of 20,000 cells/mL and treated with a proliferative dose of isoxylitones, i.e., 150 μg/ml for 24 hrs at 37° C. and 5% CO2 to let the cells adhere on the bottom surface of the slide. Following incubation, the media was refreshed and the cells were immunolabelled as mentioned in table #2.1.\n(§3) For immunostaining, the media was removed; cells were washed gently with 1 mL of 1×PBS. After removing 1×PBS, 4% formaldehyde was added and the slides were incubated for 20 minutes at room temperature to fix the cells. The fixative was aspirated followed by a three times rinse with 1 mL of 1×PBS. After washing, the blocking buffer (BSA having 3% normal goat serum, 0.2% tween-20 and 0.3% of Triton X-100 in 10×PBS) was added and the slides were kept at room temperature for an hour. Then, the cells were washed gently three times with 1×PBS on an orbital shaker and 300 μL of primary antibodies (dilution mentioned in table #2.1) were added to each slide and incubated overnight at 4° C. Following incubation, the cells were washed gently in PBS three times (5 minutes each wash) on an orbital shaker. Next secondary antibody (Table #2.1) in 3% normal serum or BSA was added to their respective chamber and incubated for 1 hour at room temperature in dark. Following incubation, the slides were washed with 1×PBS.\n(§4) Diluted Dapi (1:1000) was added into each slide to counter stain the nucleus. After rinsing twice with distilled water, images were captured using the Nikon 90i with fluorescence microscopes (Nikon. Tokyo, Japan) equipped with Nuance Software version 3.1 (Caliper Life Sciences. Hopkinton, Mass.). The magnification used was 20×.\n(§5) For quantification studies, ImageJ software (National Institutes of Health, USA) was used to digitalized the images. This software provides multiple imaging system data comparisons taking densitometry in consideration. Briefly, 5 different regions were randomly selected and the fluorescence intensity was quantified in cells and the background intensity of each image was subtracted from it, the residual particles were measured to represent expression of relevant protein. Cells or fields were counted and percentage intensity of protein expression was measured and means percentage intensity was calculated. Data from three individual experiments was obtained and expressed as means±SEM."}, "tubulin": {"system": "tubulin", "experimental": "as §1, §2, §3, §4, §5"}, "nestin": {"system": "nestin", "conditions": "24 h", "experimental": "as §1, §2, §3, §4, §5"}, "GFAP": {"system": "GFAP", "conditions": "24 h", "experimental": "as §1, §2, §3, §4, §5"}, "Neuro D1": {"system": "Neuro D1", "experimental": "as §1, §2, §3, §4, §5"}, "Calretinin (CR)": {"system": "Calretinin (CR)", "conditions": "vs control", "experimental": "as §1, §2, §3, §4, §5"}}, "data": [{"smiles": "CC(=O)C=C1C=C(C)CC(C)(C)C1", "note": "(mixture of isomers) [isoxylitones]", "values": [{"measurement": "neurogenin expression (immunostaining)", "setting": "neurogenin; (A) cortical and (B) CoCul-CTX cells, FIG. 18", "value": "prominent neurogenin expression"}, {"measurement": "neurogenin expression (immunostaining)", "setting": "neurogenin; (A) hippocampal and (B) CoCul-HP cells, 24 h, vs control P<0.001, FIG. 19", "value": "elevated neurogenin expression"}, {"measurement": "tubulin expression (immunofluorescence)", "setting": "tubulin; (A) cortical and (B) CoCul-CTX cells, P<0.01, FIG. 12", "value": "significant upregulation of tubulin"}, {"measurement": "tubulin expression (immunofluorescence)", "setting": "tubulin; (A) hippocampal and (B) CoCul-HP cells, 150 μg/ml, 24 h, vs control, FIG. 13", "value": "significant upregulation"}, {"measurement": "nestin expression (immunofluorescence)", "setting": "nestin; (A) CTX and (B) CoCul-CTX cells, vs control, FIG. 9", "value": "no significant difference"}, {"measurement": "nestin expression (immunofluorescence)", "setting": "nestin; (A) hippocampal and (B) CoCul-HP cells, 150 μg/ml, vs untreated control, FIG. 8", "value": "up-regulation of nestin protein expression"}, {"measurement": "GFAP expression (immunofluorescence)", "setting": "GFAP; (A) cortical and (B) CoCul-CTX cells, vs vehicle control, FIG. 10", "value": "prominent increase of GFAP expression"}, {"measurement": "GFAP immunochemistry, intensity of images", "setting": "GFAP; (A) hippocampal and (B) CoCul-HP cells, 150 μg/ml, vs control, FIG. 11", "value": "No significant difference in intensity"}, {"measurement": "Neuro D1 protein expression", "setting": "Neuro D1; (A) cortical and (B) CoCul-CTX cells, 150 μg/ml, 24 h, vs control, FIG. 16", "value": "significant upregulation"}, {"measurement": "Neuro D1 immunofluorescence intensity", "setting": "Neuro D1; (A) hippocampal and (B) CoCul-HP cells, FIG. 17", "value": "significant up-regulation in immunofluorescence of NeuroD1 intensity"}, {"measurement": "Calretinin (CR) fluorescent intensity", "setting": "Calretinin (CR); (A) cortical and (B) CoCul-CTX cells, FIG. 14", "value": "prominent increase in the fluorescent intensity of calretinin"}, {"measurement": "CR expression (immunoreactivity)", "setting": "Calretinin (CR); (A) hippocampal and (B) CoCul-HP cells, FIG. 15", "value": "significant increase in CR expression"}]}]}
